≈ marks a conversion by molar mass, not a printed value. Where two headings read alike, the source gives them in different places.
Legend:
E. coli Juhl A15119 = assay: MIC by two-fold agar dilution; format: cell-based; details: Mueller-Hinton agar, unit assumed
E. coli K-12 A9632 = assay: MIC by two-fold agar dilution; format: cell-based; details: Mueller-Hinton agar, unit assumed
E. coli A20683 = assay: MIC by two-fold agar dilution; format: cell-based; details: Mueller-Hinton agar, unit assumed
E. coli A20732 = assay: MIC by two-fold agar dilution; format: cell-based; details: Mueller-Hinton agar, unit assumed
E. cloacae A21006 = assay: MIC by two-fold agar dilution; format: cell-based; details: Mueller-Hinton agar, unit assumed
K. pneumoniae A20680 = assay: MIC by two-fold agar dilution; format: cell-based; details: Mueller-Hinton agar, unit assumed
S. marcescens A20019 = assay: MIC by two-fold agar dilution; format: cell-based; details: Mueller-Hinton agar, unit assumed
S. marcescens A20333 = assay: MIC by two-fold agar dilution; format: cell-based; details: Mueller-Hinton agar, unit assumed
S. aureus 209P = assay: MIC by two-fold agar dilution; format: cell-based; details: Mueller-Hinton agar, unit assumed
S. aureus #193 = assay: MIC by two-fold agar dilution; format: cell-based; details: Mueller-Hinton agar, unit assumed
S. aureus BX-1633,A9606 = assay: MIC by two-fold agar dilution; format: cell-based; details: Mueller-Hinton agar, unit assumed
M. flavus D12 = assay: MIC by two-fold agar dilution; format: cell-based; details: Mueller-Hinton agar, unit assumed
B. cereus ATCC 10702A = assay: MIC by two-fold agar dilution; format: cell-based; details: Mueller-Hinton agar, unit assumed
B. anthracis 115 = format: cell-based; details: Mueller-Hinton agar, unit assumed
Mycobacterium 607, D47 = assay: MIC by two-fold agar dilution; format: cell-based; details: Medium #1001, unit assumed
C. albicans Nystatin-R = assay: MIC by two-fold agar dilution; format: cell-based; details: Ca-2 C. albicans Nystatin-R; sabouraud agar; unit assumed
C. krusei #96 A15052 = assay: MIC by two-fold agar dilution; format: cell-based; details: Ck-2 C. krusei #96 A15052; sabouraud agar; unit assumed
[1] = test system: C. tropicalis #125 A15051; assay: MIC by two-fold agar dilution; format: cell-based; details: Ct-4 C. tropicalis #125 A15051; sabouraud agar; unit assumed
S. cerevisiae ATCC 9763 = assay: MIC by two-fold agar dilution; format: cell-based; details: Sc-1 S. cerevisiae ATCC 9763; sabouraud agar; unit assumed
A. fumigatus IAM 2530 = assay: MIC by two-fold agar dilution; format: cell-based; details: Af-1 A. fumigatus IAM 2530; sabouraud agar; unit assumed
Hormodendrum sp. = assay: MIC by two-fold agar dilution; format: cell-based; details: Hy-1 Hormodendrum sp.; sabouraud agar; unit assumed
Verticillium sp. = assay: MIC by two-fold agar dilution; format: cell-based; details: Vx-1 Verticillium sp.; sabouraud agar; unit assumed
Mucor sp. = assay: MIC by two-fold agar dilution; format: cell-based; details: My-1 Mucor sp.; sabouraud agar; unit assumed
[2] = test system: F. moniliforme NRRL A2284; assay: MIC by two-fold agar dilution; format: cell-based; details: Fm-1 F. moniliforme NRRL A2284; sabouraud agar; unit assumed
C. lunata ATCC 13432 = assay: MIC by two-fold agar dilution; format: cell-based; details: Cl-1 C. lunata ATCC 13432; sabouraud agar; unit assumed
P. citrinum IAM 7008 = assay: MIC by two-fold agar dilution; format: cell-based; details: Pt-1 P. citrinum IAM 7008; sabouraud agar; unit assumed
T. mentagrophytes D-155 = assay: MIC by two-fold agar dilution; format: cell-based; details: Tm-1 T. mentagrophytes D-155; sabouraud agar; unit assumed
M. canis D-51 = assay: MIC by two-fold agar dilution; format: cell-based; details: Mc-1 M. canis D-51; sabouraud agar; unit assumed
[3] = mice, single subcutaneous injection, 16 days
Experimental: The acute toxicity of copper-free Bu-2231 A and B was determined in mice by a single subcutaneous injection. Groups of 3 mice were used for each dose level and the body weight was recorded for 16 days.

S. aureus Smith = assay: In vivo activity in experimental mice infection; details: Table 11
Experimental: The in vivo activity of Bu-2231 complex was evaluated in experimental mice infections against S. aureus Smith and E. coli NIHJ. Bleomycin was tested comparatively as a reference antibiotic.

[4] = test system: Walker 256 carcinosarcoma in ascitic form; details: for Average Weight Change: recorded Day 5; for Survivors Day 44: survivors considered cured; for Survivors Day 5: toxicity evaluation;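 as to all read-outs here: female SD rats bearing intraperitoneally implanted ascites tumor cells, treated ip once a day for 8 days beginning on Day 1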
Lewis Lung carcinoma = details: Exp. #55; for Survivors Day 5: toxicity evaluation
[5] = Exp. #5439, 160 mcg/kg/day ip once daily for 8 days
[6] = Exp. #5439, 640 mcg/kg/day ip once daily for 8 days
[7] = Exp. #5439, 2560 mcg/kg/day ip once daily for 8 days
[8] = 1 mg/kg/day ip once daily for 9 days
[9] = 2 mg/kg/day ip once daily for 9 days
[10] = 4 mg/kg/day ip once daily for 9 days
[11] = 8 mg/kg/day ip once daily for 9 days

Molecule Cc1c(N)nc([C@H](CC(N)=O)NC[C@H](N)C(N)=O)nc1C(=O)N[C@H](C(=O)N[C@H](C)[C@@H](O)CC(=O)N[C@H](C(=O)NC(O[C@@H]1O[C@@H](C)[C@@H](N)[C@@H](O)[C@H]1O)C(O)c1nc(-c2nc(C(=O)NCCCC(N)CC(=O)NCCCNCCCCN)cs2)cs1)[C@@H](C)O)[C@H](O[C@@H]1O[C@@H](CO)[C@@H](O)[C@H](O)[C@@H]1O[C@H]1O[C@H](CO)[C@@H](O)[C@H](OC(N)=O)[C@@H]1O)c1c[nH]cn1 (some centres unmarked) [Bu-2231 A Cu-free] has an MIC (E. coli Juhl A15119) of 0.1 µg/mL (≈ 0.0577 µM), an MIC (E. coli K-12 A9632) of 0.05 µg/mL (≈ 0.0289 µM) and an MIC (E. coli A20683) of 6.3 µg/mL (≈ 3.64 µM). The MIC (E. coli A20732) was 0.05 µg/mL (≈ 0.0289 µM), the MIC (E. cloacae A21006) was 1.6 µg/mL (≈ 0.924 µM) and the MIC (K. pneumoniae A20680) was 6.3 µg/mL (≈ 3.64 µM). It also gave an MIC (S. marcescens A20019) of 0.4 µg/mL (≈ 0.231 µM), an MIC (S. marcescens A20333) of 0.2 µg/mL (≈ 0.115 µM) and an MIC (S. aureus 209P) of 0.1 µg/mL (≈ 0.0577 µM). For the same molecule, the MIC (S. aureus #193) was 0.1 µg/mL (≈ 0.0577 µM), the MIC (S. aureus BX-1633,A9606) was 0.2 µg/mL (≈ 0.115 µM) and the MIC (M. flavus D12) was 0.2 µg/mL (≈ 0.115 µM). For the same molecule, the MIC (B. cereus ATCC 10702A) was 0.2 µg/mL (≈ 0.115 µM), the MIC (B. anthracis 115) was 0.05 µg/mL (≈ 0.0289 µM) and the MIC (Mycobacterium 607, D47) was 0.1 µg/mL (≈ 0.0577 µM). The MIC (C. albicans Nystatin-R) was 0.8 µg/mL (≈ 0.462 µM), the MIC (C. krusei #96 A15052) was 0.8 µg/mL (≈ 0.462 µM) and the MIC [1] was 0.8 µg/mL (≈ 0.462 µM). It also gave an MIC (S. cerevisiae ATCC 9763) of 0.4 µg/mL (≈ 0.231 µM), an MIC (A. fumigatus IAM 2530) of 0.8 µg/mL (≈ 0.462 µM) and an MIC (Hormodendrum sp.) of 0.8 µg/mL (≈ 0.462 µM). For the same molecule, the MIC (Verticillium sp.) was 3.1 µg/mL (≈ 1.79 µM), the MIC (Mucor sp.) was 6.3 µg/mL (≈ 3.64 µM) and the MIC [2] was 0.8 µg/mL (≈ 0.462 µM). For the same molecule, the MIC (C. lunata ATCC 13432) was 0.8 µg/mL (≈ 0.462 µM), the MIC (P. citrinum IAM 7008) was 1.6 µg/mL (≈ 0.924 µM) and the MIC (T. mentagrophytes D-155) was 12.5 µg/mL (≈ 7.22 µM). For the same molecule, the MIC (M. canis D-51) was 3.1 µg/mL (≈ 1.79 µM) and the LD50 [3] was 28 mg/kg.
In the case of Bleomycin [reference compound], the MIC (E. coli Juhl A15119) is reported as 1.6 µg/mL, the MIC (E. coli K-12 A9632) is reported as 0.8 µg/mL and the MIC (E. coli A20683) is reported as > 100 µg/mL. For the same molecule, the MIC (E. coli A20732) was 1.6 µg/mL, the MIC (E. cloacae A21006) was > 100 µg/mL and the MIC (K. pneumoniae A20680) was > 100 µg/mL. For the same molecule, the MIC (S. marcescens A20019) was > 100 µg/mL, the MIC (S. marcescens A20333) was > 100 µg/mL and the MIC (S. aureus 209P) was 6.3 µg/mL. For the same molecule, the MIC (S. aureus #193) was 12.5 µg/mL, the MIC (S. aureus BX-1633,A9606) was 6.3 µg/mL and the MIC (M. flavus D12) was 50 µg/mL. It also gave an MIC (B. cereus ATCC 10702A) of 1.6 µg/mL, an MIC (B. anthracis 115) of 12.5 µg/mL and an MIC (Mycobacterium 607, D47) of 0.4 µg/mL. For the same molecule, the MIC (C. albicans Nystatin-R) was 12.5 µg/mL, the MIC (C. krusei #96 A15052) was 3.1 µg/mL and the MIC [1] was > 100 µg/mL. The MIC (S. cerevisiae ATCC 9763) was 0.8 µg/mL, the MIC (A. fumigatus IAM 2530) was 0.8 µg/mL and the MIC (Hormodendrum sp.) was 0.8 µg/mL. For the same molecule, the MIC (Verticillium sp.) was 6.3 µg/mL, the MIC (Mucor sp.) was 3.1 µg/mL and the MIC [2] was > 100 µg/mL. For the same molecule, the MIC (C. lunata ATCC 13432) was 0.1 µg/mL, the MIC (P. citrinum IAM 7008) was > 100 µg/mL and the MIC (T. mentagrophytes D-155) was > 100 µg/mL. The MIC (M. canis D-51) was > 100 µg/mL, the “PD50 (median protective dose)” value (S. aureus Smith; S. aureus Smith infection, mice, sc) was 2.5 mg/kg and the “In vivo activity vs. S. aureus Smith infection (x/5 mice)” value (S. aureus Smith; dose (sc) 0.13 mg/kg) was 0/5. For the same molecule, the “In vivo activity vs. S. aureus Smith infection (x/5 mice)” value (S. aureus Smith; dose (sc) 0.5 mg/kg) was 1/5, the “In vivo activity vs. S. aureus Smith infection (x/5 mice)” value (S. aureus Smith; dose (sc) 2 mg/kg) was 2/5 and the “In vivo activity vs. S. aureus Smith infection (x/5 mice)” value (S. aureus Smith; dose (sc) 8 mg/kg) was 4/5. The “Effect MST %T/C” value [4, 5] was 111%, the “MST Days” value [4, 5] was 10.0 days and the “Average Weight Change” value ([4]; Exp. #5439, 160 mcg/kg/day) was “+11 g”. For the same molecule, the “Survivors Day 44” value ([4]; Exp. #5439, 160 mcg/kg/day) was 0/6, the “Survivors Day 5” value ([4]; Exp. #5439, 160 mcg/kg/day) was 6/6 and the “Effect MST %T/C” value [4, 6] was 194%. The “MST Days” value [4, 6] was 17.5 days, the “Survivors Day 44” value ([4]; Exp. #5439, 640 mcg/kg/day) was 1/6 and the “Survivors Day 5” value ([4]; Exp. #5439, 640 mcg/kg/day) was 6/6. For the same molecule, the “Effect MST %T/C” value [4, 7] was > 489%, the “MST Days” value [4, 7] was > 44.0 days and the “Average Weight Change” value ([4]; Exp. #5439, 2560 mcg/kg/day) was “+10 g”. For the same molecule, the “Survivors Day 44” value ([4]; Exp. #5439, 2560 mcg/kg/day) was 4/6, the “Survivors Day 5” value ([4]; Exp. #5439, 2560 mcg/kg/day) was 6/6 and the “Effect MST %T/C” value ([4]; Exp. #5501, 160 mcg/kg/day ip once daily for 8 days) was 157%. The “MST Days” value ([4]; Exp. #5501, 160 mcg/kg/day ip once daily for 8 days, Bu-2231 A and B as copper-free formate salts) was 11.0 days, the “Survivors Day 5” value ([4]; Exp. #5501, 160 mcg/kg/day) was 6/6 and the “Effect MST %T/C” value ([4]; Exp. #5501, 640 mcg/kg/day ip once daily for 8 days) was 179%. The “MST Days” value ([4]; Exp. #5501, 640 mcg/kg/day ip once daily for 8 days, Bu-2231 A and B as copper-free formate salts) was 12.5 days, the “Survivors Day 5” value ([4]; Exp. #5501, 640 mcg/kg/day) was 6/6 and the “minimum effective dose (MED)” value ([4]; Table I, Walker 256 ascitic tumor) was 0.64 mg/kg. The “Effect MST %T/C” value (Lewis Lung carcinoma; [8]) was 109%, the “MST Days” value (Lewis Lung carcinoma; [8]) was 24.0 days and the “Survivors Day 5” value (Lewis Lung carcinoma; 1 mg/kg/day) was 6/6. For the same molecule, the “Effect MST %T/C” value (Lewis Lung carcinoma; [9]) was 109%, the “MST Days” value (Lewis Lung carcinoma; [9]) was 24.0 days and the “Survivors Day 5” value (Lewis Lung carcinoma; 2 mg/kg/day) was 6/6. For the same molecule, the “Effect MST %T/C” value (Lewis Lung carcinoma; [10]) was 57%, the “MST Days” value (Lewis Lung carcinoma; [10]) was 12.5 days and the “Survivors Day 5” value (Lewis Lung carcinoma; 4 mg/kg/day) was 6/6. For the same molecule, the “Effect MST %T/C” value (Lewis Lung carcinoma; [11]) was 48%, the “MST Days” value (Lewis Lung carcinoma; [11]) was 10.5 days and the “Survivors Day 5” value (Lewis Lung carcinoma; 8 mg/kg/day) was 6/6.

— US4051237A, “Glycopeptide antibiotics Bu-2231 A and B and process for producing same” (priority 1975, dated 1977)
